Experiments:
[1] = system: Pennlinks creeping bentgrass for greens; experiment: Turfgrass quality rating, greens creeping bentgrass (Example 16); type: in vivo; details: scale of 1-9
From the text: In this Example, the effect of a fertilizer comprising lysine on cool season greens quality turfgrass growth was examined. The effects of lysine (HCl) and LIQUID LYSINE on a common type of golf course greens quality turfgrass (Pennlinks creeping bentgrass for greens, mown at 0.1875 in height of cut) were compared with those of urea, Milorganite and a blended fertilizer (a blend of methylene urea and urea in an approximately 1:1 ratio).
Fifteen fertilizer treatments comprising three concentrations of each fertilizer composition (Milorganite (N—P—K, 6-2-0), urea (N—P—K, 46-0-0), a blended fertilizer, LIQUID LYSINE N—P—K, 10-2-1), and lysine (HCl) (N—P—K, 15-2-1)) were prepared and applied to 3 replications of well established Pennlinks creeping bentgrass mown to 0.1875 in height cut. The urea, lysine (HCl), and LIQUID LYSINE were dissolved/suspended in 1.5 gal water prior to application. Each fertilizer treatment was applied in concentrations of 0.125 lb N/1000 ft^2/week, 0.250 lb N/1000 ft^2/week and 0.750 lb N/1000 ft^2/week. The urea, LIQUID LYSINE and lysine (HCl) were applied as foliar liquids, while Milorganite and blended fertilizer were applied as granular fertilizers. Plot size was 4 ft×8 ft laid out in a replicated complete block design. Plots were mowed at 0.1875 inches height before fertilizer application and mowed five times per week to 0.1875 inch height. Grass clippings were removed from the plots after each mowing. Irrigation (0.15 inch) was applied following application and daily thereafter. Plots were rated for turfgrass quality (scale of 1-9 where 9=dark green turf, 1=dead/brown turf, and 6=minimally acceptable turf) and phytotoxic injury (scale of 0-9 where 9=significant foliar injury and 2=minimally objectionable foliar injury) throughout the study period. Quality was measured prior to application (day 0) and day 37, day 70 and day 95 after application. Injury was measured on day 37, day 70 and day 95 after application. Ai) additional set of turfgrass plots were fertilized with three treatments of a soy concentrate fertilizer with the same application rates and methods. The quality and phytotoxic injury of the soy concentrate fertilizer plots were measured on day 95. All data was subject to statistical analysis and significant means were determined.

[2] = system: Floratam St. Augustine grass; experiment: Turfgrass quality and color ratings, St. Augustine grass (Example 9); type: in vivo; parameters: key: 1-10 scale: 10 = dark green turf, 1 = dead/brown, 6 = minimally acceptable; details: scale 1-10
From the text: In this Example, the effect of a fertilizer comprising lysine on warn season turfgrass growth was examined. The effects of lysine (HCl) and LIQUID LYSINE on a common type of lawn quality turfgrass (St. Augustine grass) were compared with those of urea and Milorganite. St. Augustine grass is a commonly utilized turfgrass throughout the warm, tropical zones for lawn turf and is a commercially significant species.
Twelve fertilizer treatments comprising three concentrations of each fertilizer composition (Milorganite (N—P—K, 6-2-0), urea N—P—K, 46-0-0), LIQUID LYSINE (N—P—K, 10-2-1), and lysine (HCl) (N—P—K, 15-2-1)) were prepared and applied to 4 replications of Floratam St. Augustine grass. The lysine (HCl) was dissolved in water prior to application. Each fertilizer treatment was applied in concentrations of 0.5 lb N/1000 ft^2/month, 1.0 lb N/1000 ft^2/month and 3.0 lb N/1000 ft^2/month. The urea, LIQUID LYSINE and lysine (HCl) were applied as foliar liquids, while Milorganite was applied as a granular fertilizer. Plot size was 1 m×2 m set up as a randomized complete block. Plots were mowed at 3.0 inches before fertilizer application. Irrigation (0.15 inch) was applied following application. Plots were rated for turfgrass quality and color (scale of 1-10 where 10=dark green turf, 1=dead/brown turf; and 6=minimally acceptable turf) and phytotoxicity (scale of 0-5, where 5=worst, and 2=minimally objectionable) throughout the study period. Quality, color, and phytotoxicity were measured on 2 days before application (day −2) and day 2, day 5, day 15 and day 21 after application. All data was subject to statistical analysis and significant means were determined. Average turfgrass quality ratings for the treatments are presented in Table 6 and the quality results for application rates of 1.0 lb N/1000 ft^2/month are graphically presented in FIG. 2.

[3] = Weekly Rate 0.125 lbs N/1000 ft^2, Day 0
[4] = Weekly Rate 0.125 lbs N/1000 ft^2, Day 37
[5] = Weekly Rate 0.125 lbs N/1000 ft^2, Day 70
[6] = Weekly Rate 0.125 lbs N/1000 ft^2, Day 95
[7] = Weekly Rate 0.25 lbs N/1000 ft^2, Day 0
[8] = Weekly Rate 0.25 lbs N/1000 ft^2, Day 37
[9] = Weekly Rate 0.25 lbs N/1000 ft^2, Day 70
[10] = Weekly Rate 0.25 lbs N/1000 ft^2, Day 95
[11] = Weekly Rate 0.75 lbs N/1000 ft^2, Day 0
[12] = Weekly Rate 0.75 lbs N/1000 ft^2, Day 37
[13] = Weekly Rate 0.75 lbs N/1000 ft^2, Day 70
[14] = Weekly Rate 0.75 lbs N/1000 ft^2, Day 95
[15] = Monthly Rate 0.5 lbs N/1000 ft^2, Day 2
[16] = Monthly Rate 0.5 lbs N/1000 ft^2, Day 5
[17] = Monthly Rate 0.5 lbs N/1000 ft^2, Day 15
[18] = Monthly Rate 0.5 lbs N/1000 ft^2, Day 21
[19] = Monthly Rate 0.5 lbs N/1000 ft^2, Day −2 (before application)
[20] = Monthly Rate 1.0 lbs N/1000 ft^2, Day 2
[21] = Monthly Rate 1.0 lbs N/1000 ft^2, Day 5
[22] = Monthly Rate 1.0 lbs N/1000 ft^2, Day 15
[23] = Monthly Rate 1.0 lbs N/1000 ft^2, Day 21
[24] = Monthly Rate 1.0 lbs N/1000 ft^2, Day −2 (before application)
[25] = Monthly Rate 3.0 lbs N/1000 ft^2, Day 2
[26] = Monthly Rate 3.0 lbs N/1000 ft^2, Day 5
[27] = Monthly Rate 3.0 lbs N/1000 ft^2, Day 15
[28] = Monthly Rate 3.0 lbs N/1000 ft^2, Day 21
[29] = Monthly Rate 3.0 lbs N/1000 ft^2, Day −2 (before application)

`NC(N)=O` [Urea, urea, reference compound] was tested. Which “Quality Rating - Greens Bentgrass” value [1, 3] did it give?
The value was 4.3de.

And the “Quality Rating - Greens Bentgrass” value [1, 4]?
Its value is 4.7ef.

And the “Quality Rating - Greens Bentgrass” value [1, 5]?
The value was 5.7c.

And the “Quality Rating - Greens Bentgrass” value [1, 6]?
Its value is 5.7b.

What about the “Quality Rating - Greens Bentgrass” value [1, 7] of the same compound?
Its value is 5.0bc.

And the “Quality Rating - Greens Bentgrass” value [1, 8]?
Its value is 6.3bc.

And the “Quality Rating - Greens Bentgrass” value [1, 9]?
Its value is 6.0bc.

And the “Quality Rating - Greens Bentgrass” value [1, 10]?
Its value is 6.0ab.

And the “Quality Rating - Greens Bentgrass” value [1, 11]?
The value was 5.3b.

And the “Quality Rating - Greens Bentgrass” value [1, 12]?
Its value is 8.0a.

What about the “Quality Rating - Greens Bentgrass” value [1, 13] of the same compound?
The value was 7.0a.

And the “Quality Rating - Greens Bentgrass” value [1, 14]?
Its value is 6.7ab.

And the “Color Ratings - St. Augustine Grass” value [2, 15]?
Its value is 6.9.

What about the “Quality Ratings - St. Augustine Grass” value [2, 15] of the same compound?
The value was 6.8.

And the “Color Ratings - St. Augustine Grass” value [2, 16]?
Its value is 7.4cd.

And the “Quality Ratings - St. Augustine Grass” value [2, 16]?
The value was 7.1bcd.

And the “Color Ratings - St. Augustine Grass” value [2, 17]?
Its value is 7.8bc.

And the “Quality Ratings - St. Augustine Grass” value [2, 17]?
Its value is 7.6def.

What about the “Color Ratings - St. Augustine Grass” value [2, 18] of the same compound?
Its value is 7.6bc.

And the “Quality Ratings - St. Augustine Grass” value [2, 18]?
The value was 7.6bc.

And the “Color Ratings - St. Augustine Grass” value [2, 19]?
The value was 6.4.

What about the “Quality Ratings - St. Augustine Grass” value [2, 19] of the same compound?
The value was 6.3.

What about the “Color Ratings - St. Augustine Grass” value [2, 20] of the same compound?
Its value is 6.9.

What about the “Quality Ratings - St. Augustine Grass” value [2, 20] of the same compound?
Its value is 6.8.

What about the “Color Ratings - St. Augustine Grass” value [2, 21] of the same compound?
The value was 7.6bc.

What about the “Quality Ratings - St. Augustine Grass” value [2, 21] of the same compound?
Its value is 7.5ab.

What about the “Color Ratings - St. Augustine Grass” value [2, 22] of the same compound?
Its value is 7.5cde.

What about the “Quality Ratings - St. Augustine Grass” value [2, 22] of the same compound?
The value was 7.9cde.

What about the “Color Ratings - St. Augustine Grass” value [2, 23] of the same compound?
The value was 7.9abc.

And the “Quality Ratings - St. Augustine Grass” value [2, 23]?
Its value is 7.6bc.

What about the “Color Ratings - St. Augustine Grass” value [2, 24] of the same compound?
The value was 6.4.

And the “Quality Ratings - St. Augustine Grass” value [2, 24]?
The value was 6.3.

What about the “Color Ratings - St. Augustine Grass” value [2, 25] of the same compound?
The value was 6.8.

What about the “Quality Ratings - St. Augustine Grass” value [2, 25] of the same compound?
Its value is 6.9.

What about the “Color Ratings - St. Augustine Grass” value [2, 26] of the same compound?
The value was 8.3a.

And the “Quality Ratings - St. Augustine Grass” value [2, 26]?
The value was 7.3abc.

And the “Color Ratings - St. Augustine Grass” value [2, 27]?
The value was 8.8a.

And the “Quality Ratings - St. Augustine Grass” value [2, 27]?
The value was 9.1ab.

What about the “Color Ratings - St. Augustine Grass” value [2, 28] of the same compound?
The value was 8.5a.

And the “Quality Ratings - St. Augustine Grass” value [2, 28]?
The value was 8.3a.

And the “Color Ratings - St. Augustine Grass” value [2, 29]?
The value was 6.1.

What about the “Quality Ratings - St. Augustine Grass” value [2, 29] of the same compound?
The value was 6.1.

Which results are given for `Cl.NCCCC[C@H](N)C(=O)O` [Lys (HCl) 15% N, L-lysine monohydrochloride]?
Quality Rating - Greens Bentgrass [1, 3]: 4.7cd; Quality Rating - Greens Bentgrass [1, 4]: 5.0de; Quality Rating - Greens Bentgrass [1, 5]: 6.0bc; Quality Rating - Greens Bentgrass [1, 6]: 6.0ab; Quality Rating - Greens Bentgrass [1, 7]: 4.7cd; Quality Rating - Greens Bentgrass [1, 8]: 6.0bcd; Quality Rating - Greens Bentgrass [1, 9]: 6.0bc; Quality Rating - Greens Bentgrass [1, 10]: 6.3ab; Quality Rating - Greens Bentgrass [1, 11]: 6.0a; Quality Rating - Greens Bentgrass [1, 12]: 7.0ab; Quality Rating - Greens Bentgrass [1, 13]: 7.0a; Quality Rating - Greens Bentgrass [1, 14]: 7.0a; Color Ratings - St. Augustine Grass [2, 15]: 6.5; Quality Ratings - St. Augustine Grass [2, 15]: 6.5; Color Ratings - St. Augustine Grass [2, 16]: 7.3cd; Quality Ratings - St. Augustine Grass [2, 16]: 7.1bcd; Color Ratings - St. Augustine Grass [2, 17]: 7.0ef; Quality Ratings - St. Augustine Grass [2, 17]: 7.3ef; Color Ratings - St. Augustine Grass [2, 18]: 7.4c; Quality Ratings - St. Augustine Grass [2, 18]: 7.3cd; Color Ratings - St. Augustine Grass [2, 19]: 6.6; Quality Ratings - St. Augustine Grass [2, 19]: 6.5; Color Ratings - St. Augustine Grass [2, 20]: 7.0; Quality Ratings - St. Augustine Grass [2, 20]: 6.6; Color Ratings - St. Augustine Grass [2, 21]: 7.6bc; Quality Ratings - St. Augustine Grass [2, 21]: 7.3abc; Color Ratings - St. Augustine Grass [2, 22]: 7.6cd; Quality Ratings - St. Augustine Grass [2, 22]: 7.9cde; Color Ratings - St. Augustine Grass [2, 23]: 8.0abc; Quality Ratings - St. Augustine Grass [2, 23]: 7.9ab; Color Ratings - St. Augustine Grass [2, 24]: 6.6; Quality Ratings - St. Augustine Grass [2, 24]: 6.4; Color Ratings - St. Augustine Grass [2, 25]: 6.6; Quality Ratings - St. Augustine Grass [2, 25]: 6.9; Color Ratings - St. Augustine Grass [2, 26]: 8.0ab; Quality Ratings - St. Augustine Grass [2, 26]: 7.5ab; Color Ratings - St. Augustine Grass [2, 27]: 8.6a; Quality Ratings - St. Augustine Grass [2, 27]: 9.3a; Color Ratings - St. Augustine Grass [2, 28]: 8.0abc; Quality Ratings - St. Augustine Grass [2, 28]: 7.9ab; Color Ratings - St. Augustine Grass [2, 29]: 6.6; Quality Ratings - St. Augustine Grass [2, 29]: 6.3
